Entries after “also recorded” stand apart in the source; their conditions may differ. Counter-ions that a name gives are not always drawn. Blank lines part the entries; values can stand above or below the molecule they belong to.
Assays:
[1] = target: T1, Nterm-phos activity of human sEH (Homo sapiens, UniProt P34913); assay: AttoPhos fluorescent endpoint HTS assay for sEH phosphatase activity; type: biochemical; conditions: for inhibition of Nterm-phos in library screen: pesticide library; for Nominal Inhibition (%): [E] 2.1 nM, AttoPhos 25 μM, 60 min, 96-well; for inhibition at 10 µM: read-out: inhibition of Nterm-phos in library screen
T1 sequence (P34913 1-555): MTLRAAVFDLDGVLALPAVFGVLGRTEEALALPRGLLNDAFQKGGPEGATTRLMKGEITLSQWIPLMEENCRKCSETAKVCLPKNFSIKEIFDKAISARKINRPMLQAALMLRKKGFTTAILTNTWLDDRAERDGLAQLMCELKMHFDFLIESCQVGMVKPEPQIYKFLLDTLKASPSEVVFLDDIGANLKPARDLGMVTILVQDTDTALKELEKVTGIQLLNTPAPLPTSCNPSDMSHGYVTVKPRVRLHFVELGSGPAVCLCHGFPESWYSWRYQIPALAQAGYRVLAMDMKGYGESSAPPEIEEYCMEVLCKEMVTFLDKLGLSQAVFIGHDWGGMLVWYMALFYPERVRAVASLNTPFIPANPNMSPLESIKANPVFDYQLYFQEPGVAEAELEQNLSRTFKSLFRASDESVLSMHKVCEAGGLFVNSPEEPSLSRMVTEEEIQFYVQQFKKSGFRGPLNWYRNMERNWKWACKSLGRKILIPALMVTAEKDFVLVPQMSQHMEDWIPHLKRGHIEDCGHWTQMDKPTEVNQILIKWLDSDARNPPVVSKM

[2] = target: T1, Nterm-phos activity of human sEH; assay: AttoPhos assay in kinetic mode; type: biochemical
[3] = cited from earlier work
[4] = target: T2, Cterm-EH activity of human sEH (Homo sapiens, UniProt P34913); assay: Reversibility; type: biochemical
T2 sequence (P34913 1-555): T1 sequence (P34913 1-555)

human microsomal EH = target: T3, human microsomal EH (Homo sapiens, UniProt P07099); assay: Selectivity: microsomal EH inhibition; type: biochemical
T3 sequence (P07099 1-455): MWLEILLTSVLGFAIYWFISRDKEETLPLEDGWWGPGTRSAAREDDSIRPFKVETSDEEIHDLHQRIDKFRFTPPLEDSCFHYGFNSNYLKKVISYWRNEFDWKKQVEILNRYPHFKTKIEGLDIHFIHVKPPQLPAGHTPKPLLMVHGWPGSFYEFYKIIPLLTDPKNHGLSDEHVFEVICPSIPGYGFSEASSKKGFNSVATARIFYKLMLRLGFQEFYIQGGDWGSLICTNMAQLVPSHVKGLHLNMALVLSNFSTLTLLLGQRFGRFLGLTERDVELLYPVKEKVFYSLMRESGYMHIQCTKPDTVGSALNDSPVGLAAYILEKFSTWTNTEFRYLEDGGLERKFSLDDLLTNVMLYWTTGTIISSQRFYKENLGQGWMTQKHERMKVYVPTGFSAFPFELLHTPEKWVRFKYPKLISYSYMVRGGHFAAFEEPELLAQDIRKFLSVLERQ

[5] = system: human alkaline phosphatase; assay: Selectivity: alkaline phosphatase inhibition; type: biochemical
[6] = target: T1, Nterm-phos activity of human sEH; assay: Kinetic constants with a model of irreversible inhibition, AttoPhos 25 μM; type: biochemical
[7] = system: a series of esterases and amidases; assay: Selectivity: esterases and amidases inhibition; type: biochemical
Cterm-EH expressed alone = target: T4, Cterm-EH expressed alone (Homo sapiens, UniProt P34913); assay: Inhibition of the C-terminal domain expressed separately; type: biochemical; conditions: 10 μM for 5 min
T4 sequence (P34913 235-555 limits assumed): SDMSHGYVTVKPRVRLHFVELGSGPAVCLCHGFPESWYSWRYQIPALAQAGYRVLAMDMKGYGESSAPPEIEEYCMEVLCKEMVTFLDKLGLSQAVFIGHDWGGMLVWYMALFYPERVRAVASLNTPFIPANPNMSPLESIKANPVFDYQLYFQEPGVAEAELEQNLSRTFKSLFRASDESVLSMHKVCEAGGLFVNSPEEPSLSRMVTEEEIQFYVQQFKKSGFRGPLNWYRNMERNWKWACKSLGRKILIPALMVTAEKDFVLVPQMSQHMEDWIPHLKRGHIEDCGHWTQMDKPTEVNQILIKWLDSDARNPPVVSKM

[8] = target: T5, Nterm-phos expressed alone (Homo sapiens, UniProt P34913); assay: Inhibition of the N-terminal domain expressed separately; type: biochemical; conditions: 10 μM for 5 min
T5 sequence (P34913 1-224 limits assumed): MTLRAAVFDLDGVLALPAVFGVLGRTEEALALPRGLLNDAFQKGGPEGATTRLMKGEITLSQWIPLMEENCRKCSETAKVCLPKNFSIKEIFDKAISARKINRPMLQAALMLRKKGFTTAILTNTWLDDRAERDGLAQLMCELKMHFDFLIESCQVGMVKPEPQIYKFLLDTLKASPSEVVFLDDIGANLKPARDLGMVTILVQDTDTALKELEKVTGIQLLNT

[9] = target: T2, Cterm-EH activity of human sEH; assay: Inhibition of sEH epoxide hydrolase activity; type: biochemical; conditions: for IC50: IC50 for Cterm-EH
[10] = target: T2, Cterm-EH activity of human sEH; assay: Kinetic constants with a model of irreversible inhibition, PHOME 50 μM; type: biochemical; conditions: n = 3
[11] = target: T1, Nterm-phos activity of human sEH; assay: Reversibility; type: biochemical
[12] = read-out: IC50 (nominal inhibition column), nominal / overall value
[13] = read-out: IC50 Day 1, Day 1, 3 plates
[14] = read-out: IC50 Day 2, Day 2, 3 plates
[15] = read-out: IC50 Day 3, Day 3, 3 plates
[16] = 20 nM human sEH with 10 μM for 15 min, then dialysis
[17] = 5 mM glutathione before 10 μM for 5 min

SMILES: CCCCCCCCCCCCOP(=O)(O)O [C00003, dodecyl phosphoric acid]
- inhibition of Nterm-phos in library screen ([1]; 1 μM): more than 50%
- inhibition of Nterm-phos in library screen ([1]; 10 μM): more than 50%
- Nominal Inhibition (%) ([1]; [I] 0.8 μM): 19 ± 4%
- Nominal Inhibition (%) ([1]; [I] 1.6 μM): 39 ± 5%
- Nominal Inhibition (%) ([1]; [I] 3.1 μM): 70 ± 3%
- Nominal Inhibition (%) ([1]; [I] 6.3 μM): 91 ± 1%
- Nominal Inhibition (%) ([1]; [I] 12.5 μM): 98 ± 1%
- IC50 [1, 12]: 2.2 ± 0.3 µM
- IC50 [1, 13]: 1.8 ± 0.2 µM
- IC50 [1, 14]: 2.3 ± 0.2 µM
- IC50 [1, 15]: 2.4 ± 0.1 µM

SMILES: CCCCC(CC)CCC(CC(C)C)OS(=O)(=O)O (stereo not shown) [sodium tetradecyl sulfate]
- critical micelle concentration [3]: around 2 mM

SMILES: CCCCCCCCCCCCS(=O)(=O)O [C00002, dodecyl sulfonate]
- Nominal Inhibition (%) ([1]; [I] 1.6 μM): 9 ± 6%
- Nominal Inhibition (%) ([1]; [I] 3.1 μM): 26 ± 4%
- Nominal Inhibition (%) ([1]; [I] 6.3 μM): 54 ± 4%
- Nominal Inhibition (%) ([1]; [I] 12.5 μM): 78 ± 3%
- Nominal Inhibition (%) ([1]; [I] 25 μM): 89 ± 1%
- IC50 [1, 12]: 6.6 ± 0.8 µM
- IC50 [1, 13]: 6.3 ± 0.3 µM
- IC50 [1, 14]: 6.1 ± 0.3 µM
- IC50 [1, 15]: 7.5 ± 1.2 µM

SMILES: O=C1c2ccccc2C(=O)N1SC(Cl)(Cl)Cl [Folpet]
- IC50 [2]: 25 ± 3 µM
- inhibition at 10 µM [1]: > 50%

SMILES: S=C(S)NCCNC(=S)S [Nabam]
- IC50 [2]: > 100 µM
- inhibition at 10 µM [1]: > 50%

Further lines, with some results ahead:

- IC50 [2]: > 100 µM
SMILES: O=C(O)c1ccccc1C(=O)Nc1ccc(S(=O)(=O)Nc2nccs2)cc1 [phthalyl-sulfathiazole]

- recovery of Cterm EH activity after dialysis [4, 16]: not able to recover any
- effect of glutathione pretreatment on Cterm-EH activity [4, 17]: protected
- Cterm-EH activity recovered on glutathione added after exposure ([4]; glutathione added 5 min after exposure): 30%
- inhibition of human microsomal EH (human microsomal EH): not the other enzymes tested
- IC50 [2]: 0.4 ± 0.02 µM
- Ki [6]: 0.55 µM
- ratio of ki, Nterm-phos over Cterm-EH [6]: around 7 fold
- first-order formation rate of the covalent enzyme-inhibitor complex (ki), Nterm-phos ([6]; n = 3): 2.58 ± 0.05 min⁻¹
- inhibition of Cterm-EH expressed alone (Cterm-EH expressed alone): did not significantly inhibit
- inhibition of Nterm-phos expressed alone [8]: totally inhibited
- IC50 ratio Cterm-EH over Nterm-phos [9]: 5 fold
- IC50 ([9]; incubation time 1 min): 2 ± 0.3 µM
- IC50 ([9]; incubation time 15 min): 0.85 ± 0.05 µM
- first-order formation rate of the covalent enzyme-inhibitor complex (ki), Cterm-EH [10]: 0.39 ± 0.07 min⁻¹
- time to stable inhibition of Nterm-phos [11]: less than a minute
- recovery of Nterm-phos activity after dialysis [11, 16]: not able to recover any
- effect of glutathione pretreatment on Nterm-phos activity [11, 17]: protected
SMILES: O=c1c2ccccc2[se]n1-c1ccccc1 [ebselen]
- inhibition of human alkaline phosphatase [5]: did not inhibit; also recorded: not the other enzymes tested
- inhibition of esterases and amidases [7]: not the other enzymes tested

- IC50 [2]: > 100 µM
SMILES: CC(=O)N1CCN(c2ccc(OCC3COC(Cn4ccnc4)(c4ccc(Cl)cc4Cl)O3)cc2)CC1 (stereo not shown) [ketoconazole]
